Columns and labels:
[1] = molecular target: T1, human recombinant GCS expressed in insect cells (Homo sapiens, UniProt Q16739); assay: Inhibition of GCS; format: biochemical; conditions: read-out: Inhibition of glucosylceramide synthase (IC50 μM)
T1 construct: made in house; host or cells: insect cells
T1 sequence (Q16739 1-394): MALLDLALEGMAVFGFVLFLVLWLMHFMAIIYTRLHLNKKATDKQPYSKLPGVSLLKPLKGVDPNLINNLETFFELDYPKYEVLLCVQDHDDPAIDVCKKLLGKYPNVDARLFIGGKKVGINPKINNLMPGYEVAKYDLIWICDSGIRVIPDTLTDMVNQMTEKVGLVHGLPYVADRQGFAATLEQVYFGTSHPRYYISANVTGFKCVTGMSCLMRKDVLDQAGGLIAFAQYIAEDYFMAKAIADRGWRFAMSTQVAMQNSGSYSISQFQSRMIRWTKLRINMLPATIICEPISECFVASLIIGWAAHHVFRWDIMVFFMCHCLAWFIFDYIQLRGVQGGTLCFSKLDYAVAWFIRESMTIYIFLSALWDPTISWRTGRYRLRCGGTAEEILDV
Experimental: The assay for inhibition of GCS was performed essentially as described in Platt et al., J. Biol. Chem., 1994, 269, 27108, the enzyme source being human recombinant GCS expressed in insect cells.

[2] = molecular target: T2, non-lysosomal-β-glucocerebrosidase (Homo sapiens, UniProt Q9HCG7); assay: Inhibition of non-lysosomal-β-glucocerebrosidase; format: biochemical; conditions: whole cell extracts of MCF7 as enzyme source; 5 mM 4-MU β-glucoside; 0.2M citrate/phosphate pH 5.8
T2 construct: whole cell extracts of MCF7 (a human breast carcinoma cell line) was used as the source of the enzyme; endogenous in cells; host or cells: MCF7 whole cell extract
T2 sequence (Q9HCG7 1-927): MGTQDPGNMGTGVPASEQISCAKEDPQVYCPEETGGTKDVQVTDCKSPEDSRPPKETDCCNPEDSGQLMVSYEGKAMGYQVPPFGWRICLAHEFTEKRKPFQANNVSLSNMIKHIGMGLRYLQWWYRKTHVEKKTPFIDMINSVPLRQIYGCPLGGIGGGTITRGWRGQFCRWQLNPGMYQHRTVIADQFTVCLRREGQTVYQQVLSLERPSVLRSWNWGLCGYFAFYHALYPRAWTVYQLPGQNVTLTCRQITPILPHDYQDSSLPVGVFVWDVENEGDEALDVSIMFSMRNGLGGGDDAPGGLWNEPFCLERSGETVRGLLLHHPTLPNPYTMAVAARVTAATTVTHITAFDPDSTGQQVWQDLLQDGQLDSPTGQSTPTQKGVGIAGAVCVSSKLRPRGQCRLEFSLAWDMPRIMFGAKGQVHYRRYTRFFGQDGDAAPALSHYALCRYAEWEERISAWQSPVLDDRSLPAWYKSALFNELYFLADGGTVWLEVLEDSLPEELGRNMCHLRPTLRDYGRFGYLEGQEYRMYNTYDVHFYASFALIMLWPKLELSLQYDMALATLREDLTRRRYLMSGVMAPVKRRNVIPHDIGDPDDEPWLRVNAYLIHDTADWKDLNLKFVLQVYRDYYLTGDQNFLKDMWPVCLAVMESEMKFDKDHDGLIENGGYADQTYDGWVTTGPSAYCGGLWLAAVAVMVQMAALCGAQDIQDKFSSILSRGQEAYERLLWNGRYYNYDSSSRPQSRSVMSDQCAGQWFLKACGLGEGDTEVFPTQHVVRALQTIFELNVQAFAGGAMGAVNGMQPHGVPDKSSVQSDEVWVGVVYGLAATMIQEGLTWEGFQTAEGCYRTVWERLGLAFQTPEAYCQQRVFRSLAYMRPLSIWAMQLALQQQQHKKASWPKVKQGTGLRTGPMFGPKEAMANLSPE
Experimental: Inhibition of Non-Lysosomal-β-Glucocerebrosidase
The assay for inhibition of non-lysosomal-β-glucocerebrosidase was essentially carried out as described in Overkleeft, H. S. et al., J. Biol. Chem., 1998, 273, 26522-26527, with the following differences: whole cell extracts of MCF7 (a human breast carcinoma cell line) was used as the source of the enzyme instead of splenic membrane suspensions; 5 mM instead of 3 mM, 4-MU β-glucoside was used as substrate and 0.2M citrate/phosphate (pH 5.8) was used instead of McIlvaine buffer.

IC50 [1]: 4.8 µM | IC50 [2]: 2.5 µM
Structure (SMILES): CCCCCOc1ccc(CN2C[C@H](O)[C@@H](O)[C@@H](O)[C@@H]2CO)cc1 [Example 1, 3,4,5-Piperidinetriol, 2-(hydroxymethyl)-1-[(4-(pentyloxy)phenyl)methyl]-, (2S,3S,4R,5S)]
